These results are taken from US8318504B2, “MRP2 efflux pathway prognostic method” (priority 2009, dated 2012).

One data set deals with T1, NTCP (Homo sapiens, UniProt Q14973).
T1 construct: the coding region ligated into pcDNA5/FRT; expressed in transfected cells
T1 sequence (Q14973 1-349): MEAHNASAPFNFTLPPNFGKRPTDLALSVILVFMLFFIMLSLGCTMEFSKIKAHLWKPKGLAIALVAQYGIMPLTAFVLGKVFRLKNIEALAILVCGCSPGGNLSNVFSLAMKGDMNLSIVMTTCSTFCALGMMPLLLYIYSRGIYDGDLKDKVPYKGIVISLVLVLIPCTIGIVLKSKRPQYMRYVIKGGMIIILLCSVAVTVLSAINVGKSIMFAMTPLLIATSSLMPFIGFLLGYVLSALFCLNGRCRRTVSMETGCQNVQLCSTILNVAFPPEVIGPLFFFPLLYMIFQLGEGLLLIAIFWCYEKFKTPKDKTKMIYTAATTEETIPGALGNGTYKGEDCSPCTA
Kind of data set: Uptake of TC and CLF into CHO cells stably expressing NTCP. It counts as cell-based. The note with it: 45 seconds, sodium-dependent uptake rates. On the procedure: cDNA for human NTCP [Hagenbuch et al., J Clin Invest 1994 March; 93(3): 1326-1331] was cut with EcoRV and HindI and the coding region ligated into pcDNA5/FRT (Invitrogen, Life-Technologies, Carlsbad, Calif.). CHO FlpIn cells (Invitrogen, Life-Technologies) were transfected with the resulting construct using Lipofectamine® 2000 (Invitrogen, Life-Technologies). Stably transfected cells were selected with 550 μg Hygromycin-B in HAM-F12 medium (Gibco, Invitrogen, Life-Technologies). Transfected cells were cloned with the limiting dilution method. […] To further characterize the cloned cells, immunofluorescence localization of NTCP using a polyclonal antibody against NTCP [Kullak-Ublick G et al., Gastroenterology 1997 October; 113(4):1295-1305] was performed as described by Huber R D et al. [Am J Physiol Cell Physiol 2007 February; 292(2):[…]-[…]]. CHO cells expressing OATP1B1, OATP1B3 and OATP2B1 were described previously [Treiber et al., DMD 35:1400-1407, 2007]. For all transport experiments, cells grown on 3 cm culture dishes were cultured for 24 hours in media supplemented with 5 mmol/L sodium-butyrate to increase expression levels of transfected transporters [Palermo D P et al., J Biotechnol 1991 June; 19(1):35-47]. • Transport experiments with uptake of radioactively labeled substrates: These experiments were performed as described by Huber R D et al. […] Uptake was performed in the same buffers as for the radioactive substrates above. For visualization of CLF uptake, cells were immediately inspected with a Leica-DM-IRBE-inverted-microcope (Leica-Microsystems, Wetzlar, Germany) equipped with a Hamamatsu-ORKA-ER-camera (Hamamatsu-Photonoics, Japan). To determine uptake of CLF, cells were solubilized by the addition of 2 ml 1% (w/v) Triton-X-100. After complete solubilization, 1.5 ml was used to measure fluorescence in a Perkin-Elmer LS-5 luminescence-spectrometer set at λexe 486 nm (slit 10 nm) and λem 520 nm (slit 5 nm). Protein was determined with the bicinchoninic acid method using a kit from Interchim (Montfuçon, France). […]

Substrate in data set [1]: CC(CCC(=O)NC(CCCCNC(=S)Nc1ccc(-c2c3ccc(=O)cc-3oc3cc(O)ccc23)c(C(=O)O)c1)C(=O)O)C1CCC2C3C(O)CC4CC(O)CCC4(C)C3CC(O)C12C
As to the kind of experiment: ATP-dependent transport of CLF into Sf21 membrane vesicles containing ABCC2. It counts as biochemical, human. The note with it: other: 10 μg total protein, presence or absence of 4 mmol/L ATP; 27.0 °C. How it is done: (§1) The production of recombinant baculovirus was as described by de Waart et al. [Liver Int 2006 April; 26(3):362-368]. ABCC3 and ABCG2-recombinant baculovirus were a kind gift from Borst [Breedveld P. et al., Cancer Res 2004 Aug. 15; 64(16):5804-5811 and Borst P. et al., J Biol Chem 2001 Dec. 7; 276(49):46400-46407.]. ABCB11-recombinant baculovirus was a kind gift from Thompson [Thompson R J et al., Gastroenterology 2002 November; 123(5):1649-1658]. Sf21 cells grown at 27° C. were infected with ABCB11, ABCC2, ABCC3 and ABCG2-cDNA containing baculovirus. Cells were harvested at 2-4 days after infection. Membrane vesicle preparation was as described by de Waart et al. [Liver Int 2006 April; 26(3):362-368].
(§2) Transport studies with membrane vesicles were performed using the rapid filtration technique as described by Heijn M et al. [Am J Physiol 1992 January; 262(1 Pt 1):C104-C110]. Radiolabel was measured with a scintillation counter. When CLF was used as a probe, filters were placed in a glass tube, 0.1% Triton-X-100 was added and the tubes vortexed. Samples were pipetted in 96-well plates (Kartell, Noviglio, Italy) and the amount CLF quantitated by measurement of fluorescence at λexe 485 nm and λcm 520 nm using a NovoStar (BMG-labtech, Offenburg, Germany). […]

Substrate in data set [2]: CC(CCC(=O)NC(CCCCNC(=S)Nc1ccc(-c2c3ccc(=O)cc-3oc3cc(O)ccc23)c(C(=O)O)c1)C(=O)O)C1CCC2C3C(O)CC4CC(O)CCC4(C)C3CC(O)C12C
As to the kind of experiment: ATP-dependent transport of CLF into Sf21 membrane vesicles containing ABCC3. It counts as biochemical, human. The following applies: other: 30 μg total protein, presence or absence of 4 mmol/L ATP; 27.0 °C. How it is done:
as §1, §2

The Km is the substrate concentration at which the rate is half of its maximum. For the molecule `C[C@H](CCC(=O)NCCS(=O)(=O)O)[C@H]1CC[C@H]2[C@@H]3[C@H](O)C[C@@H]4C[C@H](O)CC[C@]4(C)[C@H]3C[C@H](O)[C@]12C` [TC, taurocholate], on NTCP, the “Vmax for sodium-dependent transport of TC” value is listed as 6738 pmol TC/mg protein/min. Besides, at NTCP (read-out: Km for sodium-dependent transport of TC), the Michaelis-Menten constant (Km) is 16 µM.

B1: ABCC2 (Homo sapiens) (protein)
chain: MLEKFCNSTFWNSSFLDSPEADLPLCFEQTVLVWIPLGYLWLLAPWQLLHVYKSRTKRSSTTKLYLAKQVFVGFLLILAAIELALVLTEDSGQATVPAVRYTNPSLYLGTWLLVLLIQYSRQWCVQKNSWFLSLFWILSILCGTFQFQTLIRTLLQGDNSNLAYSCLFFISYGFQILILIFSAFSENNESSNNPSSIASFLSSITYSWYDSIILKGYKRPLTLEDVWEVDEEMKTKTLVSKFETHMKRELQKARRALQRRQEKSSQQNSGARLPGLNKNQSQSQDALVLEDVEKKKKKSGTKKDVPKSWLMKALFKTFYMVLLKSFLLKLVNDIFTFVSPQLLKLLISFASDRDTYLWIGYLCAILLFTAALIQSFCLQCYFQLCFKLGVKVRTAIMASVYKKALTLSNLARKEYTVGETVNLMSVDAQKLMDVTNFMHMLWSSVLQIVLSIFFLWRELGPSVLAGVGVMVLVIPINAILSTKSKTIQVKNMKNKDKRLKIMNEILSGIKILKYFAWEPSFRDQVQNLRKKELKNLLAFSQLQCVVIFVFQLTPVLVSVVTFSVYVLVDSNNILDAQKAFTSITLFNILRFPLSMLPMMISSMLQASVSTERLEKYLGGDDLDTSAIRHDCNFDKAMQFSEASFTWEHDSEATVRDVNLDIMAGQLVAVIGPVGSGKSSLISAMLGEMENVHGHITIKGTTAYVPQQSWIQNGTIKDNILFGTEFNEKRYQQVLEACALLPDLEMLPGGDLAEIGEKGINLSGGQKQRISLARATYQNLDIYLLDDPLSAVDAHVGKHIFNKVLGPNGLLKGKTRLLVTHSMHFLPQVDEIVVLGNGTIVEKGSYSALLAKKGEFAKNLKTFLRHTGPEEEATVHDGSEEEDDDYGLISSVEEIPEDAASITMRRENSFRRTLSRSSRSNGRHLKSLRNSLKTRNVNSLKEDEELVKGQKLIKKEFIETGKVKFSIYLEYLQAIGLFSIFFIILAFVMNSVAFIGSNLWLSAWTSDSKIFNSTDYPASQRDMRVGVYGALGLAQGIFVFIAHFWSAFGFVHASNILHKQLLNNILRAPMRFFDTTPTGRIVNRFAGDISTVDDTLPQSLRSWITCFLGIISTLVMICMATPVFTIIVIPLGIIYVSVQMFYVSTSRQLRRLDSVTRSPIYSHFSETVSGLPVIRAFEHQQRFLKHNEVRIDTNQKCVFSWITSNRWLAIRLELVGNLTVFFSALMMVIYRDTLSGDTVGFVLSNALNITQTLNWLVRMTSEIETNIVAVERITEYTKVENEAPWVTDKRPPPDWPSKGKIQFNNYQVRYRPELDLVLRGITCDIGSMEKIGVVGRTGAGKSSLTNCLFRILEAAGGQIIIDGVDIASIGLHDLREKLTIIPQDPILFSGSLRMNLDPFNNYSDEEIWKALELAHLKSFVASLQLGLSHEVTEAGGNLSIGQRQLLCLGRALLRKSKILVLDEATAAVDLETDNLIQTTIQNEFAHCTVITIAHRLHTIMDSDKVMVLDNGKIIECGSPEELLQIPGPFYFMAKEAGIENVNSTKF
notes: made in house; host or cells: Sf21 insect cells, baculovirus; plasma membrane vesicles
As for B1, the Km in data set [1] worked out at 3.3 ± 2.0 µmol/L.

B2: ABCC3 (Homo sapiens) (protein)
chain: MDALCGSGELGSKFWDSNLSVHTENPDLTPCFQNSLLAWVPCIYLWVALPCYLLYLRHHCRGYIILSHLSKLKMVLGVLLWCVSWADLFYSFHGLVHGRAPAPVFFVTPLVVGVTMLLATLLIQYERLQGVQSSGVLIIFWFLCVVCAIVPFRSKILLAKAEGEISDPFRFTTFYIHFALVLSALILACFREKPPFFSAKNVDPNPYPETSAGFLSRLFFWWFTKMAIYGYRHPLEEKDLWSLKEEDRSQMVVQQLLEAWRKQEKQTARHKASAAPGKNASGEDEVLLGARPRPRKPSFLKALLATFGSSFLISACFKLIQDLLSFINPQLLSILIRFISNPMAPSWWGFLVAGLMFLCSMMQSLILQHYYHYIFVTGVKFRTGIMGVIYRKALVITNSVKRASTVGEIVNLMSVDAQRFMDLAPFLNLLWSAPLQIILAIYFLWQNLGPSVLAGVAFMVLLIPLNGAVAVKMRAFQVKQMKLKDSRIKLMSEILNGIKVLKLYAWEPSFLKQVEGIRQGELQLLRTAAYLHTTTTFTWMCSPFLVTLITLWVYVYVDPNNVLDAEKAFVSVSLFNILRLPLNMLPQLISNLTQASVSLKRIQQFLSQEELDPQSVERKTISPGYAITIHSGTFTWAQDLPPTLHSLDIQVPKGALVAVVGPVGCGKSSLVSALLGEMEKLEGKVHMKGSVAYVPQQAWIQNCTLQENVLFGKALNPKRYQQTLEACALLADLEMLPGGDQTEIGEKGINLSGGQRQRVSLARAVYSDADIFLLDDPLSAVDSHVAKHIFDHVIGPEGVLAGKTRVLVTHGISFLPQTDFIIVLADGQVSEMGPYPALLQRNGSFANFLCNYAPDEDQGHLEDSWTALEGAEDKEALLIEDTLSNHTDLTDNDPVTYVVQKQFMRQLSALSSDGEGQGRPVPRRHLGPSEKVQVTEAKADGALTQEEKAAIGTVELSVFWDYAKAVGLCTTLAICLLYVGQSAAAIGANVWLSAWTNDAMADSRQNNTSLRLGVYAALGILQGFLVMLAAMAMAAGGIQAARVLHQALLHNKIRSPQSFFDTTPSGRILNCFSKDIYVVDEVLAPVILMLLNSFFNAISTLVVIMASTPLFTVVILPLAVLYTLVQRFYAATSRQLKRLESVSRSPIYSHFSETVTGASVIRAYNRSRDFEIISDTKVDANQRSCYPYIISNRWLSIGVEFVGNCVVLFAALFAVIGRSSLNPGLVGLSVSYSLQVTFALNWMIRMMSDLESNIVAVERVKEYSKTETEAPWVVEGSRPPEGWPPRGEVEFRNYSVRYRPGLDLVLRDLSLHVHGGEKVGIVGRTGAGKSSMTLCLFRILEAAKGEIRIDGLNVADIGLHDLRSQLTIIPQDPILFSGTLRMNLDPFGSYSEEDIWWALELSHLHTFVSSQPAGLDFQCSEGGENLSVGQRQLVCLARALLRKSRILVLDEATAAIDLETDNLIQATIRTQFDTCTVLTIAHRLNTIMDYTRVLVLDKGVVAEFDSPANLIAARGIFYGMARDAGLA
notes: made in house; host or cells: Sf21 insect cells, baculovirus (gift from Borst); plasma membrane vesicles
As for B2, the Michaelis constant (Km) in data set [2] worked out at 3.7 ± 1.0 µmol/L.
